Key:
[1] = system: stimulus-induced acetylcholine release, slices from the parietal cortex; test: Neurotransmitter (ACh) release assay, rat cortex slices, K+ stimulated; format: cell-based, rat (male Wistar); conditions: for EC50: Table III
Experimental: The neurotransmitter release activities of the compounds of this invention were determined using standard biochemical assay procedures for example, the neurotransmitter release assay as described below.
Neurotransmitter release assay.
The neurotransmitter (Ach) release activities of the compounds of this invention were determined by the assay as described by Nickolson, et al., Drug Development Research, (1990) 19: 285-300, a modification of the procedure described by Mulder, et al., Brain Res., (1974) 70: 372.
Male Wistar rats (Charies River) weighing 175-200 grams were used. Rats were decapitated and brains were dissected immediately. Slices (0.3 mm thick) from the parietal cortex were prepared (approximately 100 mg wet weight) and were incubated in 10 ml KrebsRinger medium (KR) containing NaCl (116 mM), KCl (3 mM), CaCl2 (1.3 mM), MgCl2 (1.2 mM), KH2 PO4 (1.2 mM), Na2 SO4 (1.2 mM), NaHCO3 (25.0 mM), and glucose (11.0 mM), to which was added 10 uCi ^3 H-choline (specific activity approximately 35 Ci/mM; NEN) and […] unlabeled choline to give a final concentration of one micromole. The brain preparations were incubated for 30 min. at 37° C. under a steady flow of 95% O2 /5% CO2. Under these conditions, part of the radioactive choline taken up by the preparation was converted into radioactive acetylcholine (ACh) by the cholinergic nerve endings stored in synaptic vesicles, and released upon depolarization by high potassium ion (K+) containing media.
After labelling of the ACh stores, the slices were washed three times with non-radioactive KR medium and transferred to a superfusion apparatus to measure the drug effects on ACh release. The superfusion apparatus consisted of 10 thermostated glass columns of 5 mm diameter that were provided with GF/F glass fiber filters to support the slices (approximately 10 mg tissue/column). Superfusion was carried out in KR-medium (0.3 ml/min.) containing […] hemicholine-3 (HC-3). The HC-3 prevents the reuptake of choline formed during the superfusion from phospholipids and released ACh, which would be converted into unlabeled ACh and released in preference to the preformed labeled ACh. The medium was delivered by a 25-channel peristaltic pump (Ismatec by Brinkman) and warmed to 37° C. in a thermostated stainless steel coil before entering the superfusion column. Each column was provided with a 4-way slider valve (Beckmann instruments) which allowed rapid change of low to high K+/KR-medium, and with two 10-channel 3-way valves that were used to change from drug-free to drug-containing low and high K+/KR-medium. After 15 min. of washout of non-specifically bound radioactivity, collection of 4 min. fractions was initiated. After three 4 min. collections, the original medium was changed to a KR-medium in which the KCl concentration had been increased to 25 mM (high K+ medium) (S1). Depolarization-induced stimulation of release by high K+/KR-medium lasted for 4 min. Drug free low and high K+/KR-media were then substituted by drug- and vehicle-containing low- and high-K+/KR-medium, and superfusion was continued for three 4 min. collections with low K+/KR-medium, one 4 min. collection with high K+/KR-medium (s2), and two 4 min. collections with low K+/KR-medium.
Drug was added to the media by 100-fold dilutions of appropriate concentrations of the drug (in 0.9% saline) with either low- or high-K+/KR-medium. For comparative purposes, linopirdine was also run.
All superfusion fractions were collected in liquid scintillation counting vials. After superfusion, the slices were removed from the superfusion columns and extracted with 1.0 ml of 0.1N HCl. Liquiscint (NEN) counting fluid (12 ml) was added to superfusion fractions and extracts, and the samples were counted in a Packard Tricarb Liquid Scintillation Counter. No corrections were made for quenching. […]

[2] = system: ACh level in the rat hippocampus; test: Microdialysis, ACh levels in the rat hippocampus in vivo; set-up: species or system rat (male Wistar); conditions: for AUC, Area % under the curve / Peak, maximal % increase of ACh release over baseline / time of Peak after administration / Duration, minutes of release above statistical significance: Table IV
Experimental: Male Wistar Rats are anaesthetized and guide cannulas stereotaxically implanted into the brain at the level of the dorsal hippocampus. Following a minimum recovery period of 72 h, dialysis probes (0.5 mm diameter, 4.0 mm long, from BAS) are inserted into the hippocampus through the guide cannulas. The probes are perfused at a rate of 2 μl/min with artificial cerebrospinal fluid containing 100 μM physostigmine sulfate (a cholinesterase inhibitor). Rats are allowed to acclimate for 2 hours prior to sample collection. Dialysate samples are collected every 20 min (40 μl) and immediately injected onto a high performance liquid chromatograph equipped for electrochemical detection (HPLC-EC) of acetylcholine (ACh). Following collection of 3 baseline samples, drugs or vehicle control are administered in 0.01 ml/g body weight and dialysate samples are collected for an additional 3 h. The ACh peak heights of the 3 samples prior to drug administration are averaged together to determine baseline ACh levels. ACh peak heights post drug administration are measured and used to determine percent change over baseline ACh levels. At the end of experiments, probe placement is verified histologically.
ACh is separated by reverse phase chromatography (Hamilton PRP-1 column 150×4.5 mm) and converted to acetate, betaine and hydrogen peroxide on an immobilized enzyme reactor column (BAS). Hydrogen peroxide is then detected electrochemically. Mobile phase for the chromatography consists of 0.2M Na2 HPO4, 0.1 mM EDTA, 0.5 mM SOS, 0.9 mM TMA.Cl, with pH adjusted to 8.0 with phosphoric acid and […] Kathon CG (ESA) added to each liter of mobile phase to retard bacterial growth.
FIGS. 1 and 2 show the effects of fluorine substitution to the pendant groups of the anthrone and azafluorene core series on the ability of compounds to increase the level of ACh in the rat hippocampus in vivo. All compounds were tested at 5 mg/kg except Ex. No 64 which was administered at 1 mg/kg. […] This was observed even though the compound was administered by a route (i.p.) which should lead to greater bioavailability than the oral route. Example 68 of the present invention, the bis-fluorinated analog of Example 611 or U.S. Pat. No. 5,173,489, on the other hand, led to a 2-fold increase in ACh levels which was maintained for over 1 hour (FIG. 1). The anthrone compound Ex. No. 440 of U.S. Pat. No. 5,173,489, at 5 mg/kg, led to a peak ACh level of 72% over baseline (FIG. 2). Ex. No. 64 of the present invention, which is the bis-fluoro analog of Ex. No. 440 of U.S. Pat. No. 5,173,489, at 1 mg/kg, led to a delayed increase in ACh levels reaching a peak of over 100% above baseline (FIG. 2). In contrast to the observed effects of Example 440 of U.S. Pat. No. 5,173,489, the increase in ACh level after administration of Example 64 of the present invention was maintained for the entire duration of testing (3 hours).

[3] = 5 mg/kg, vehicle water, NSP = no significant points
[4] = 1 mg/kg, vehicle methocel, NSP = no significant points
[5] = 5 mg/kg, vehicle methocel, NSP = no significant points

Row | SMILES | AUC, Area % under the curve ([2]; 5 mg/kg, vehicle water) | Peak, maximal % increase of ACh release over baseline ([2]; 5 mg/kg, vehicle water) | time of Peak after administration ([2]; 5 mg/kg, vehicle water) | Duration, minutes of release above statistical significance [2, 3] | EC50 [1] | AUC, Area % under the curve ([2]; 1 mg/kg, vehicle methocel) | Peak, maximal % increase of ACh release over baseline ([2]; 1 mg/kg, vehicle methocel) | time of Peak after administration ([2]; 1 mg/kg, vehicle methocel) | Duration, minutes of release above statistical significance [2, 4] | AUC, Area % under the curve ([2]; 5 mg/kg, vehicle methocel) | Peak, maximal % increase of ACh release over baseline ([2]; 5 mg/kg, vehicle methocel) | time of Peak after administration ([2]; 5 mg/kg, vehicle methocel) | Duration, minutes of release above statistical significance [2, 5] | other results
1 | Fc1cc(CC2(Cc3ccncc3)c3ccccc3-c3sccc32)ccn1 (centres unmarked) [Example 7, 2-Fluoro-4-[4-(4-pyridinylmethyl)-4H-indeno[1,2-B]thiophen-4-ylmethyl]-pyridine] | 235 ± 87% | 53 ± 19% | 180 min | NSP |  |  |  |  |  |  |  |  |  | activation at 10 µM ([1]; Table II, 10 μM, % increase of drug-induced ACh release): 439%
2 | Fc1cc(CC2(Cc3ccncc3)c3ccccc3-c3ncccc32)ccn1 (centres unmarked) [Example 62] | 160 ± 187% | 47 ± 32% | 40 min | NSP | 300 nM |  |  |  |  |  |  |  |  | AUC, Area % under the curve ([2]; 10 mg/kg, vehicle water): 221 ± 85%; Duration, minutes of release above statistical significance ([2]; 10 mg/kg, vehicle water): > 40 min; Peak, maximal % increase of ACh release over baseline ([2]; 10 mg/kg, vehicle water): 52 ± 10%; time of Peak after administration ([2]; 10 mg/kg, vehicle water): 20 min
3 | O=C1c2ccccc2C(Cc2ccnc(F)c2)(Cc2ccnc(F)c2)c2ccccc21 [Example 64, 10,10-Bis((2-fluoro-4-pyridinyl)methyl)-9(10H)-anthracenone] |  |  |  |  | 660 nM | 711 ± 158% | 115 ± 27% | 180 min | > |  |  |  |  | peak ACh level above baseline ([2]; 1 mg/kg oral, FIG. 2, delayed increase): over 100%; time for which the increase in ACh level was maintained ([2]; 1 mg/kg oral, FIG. 2, entire duration of testing): ≥ 3 h; AUC, Area % under the curve ([2]; 0.5 mg/kg, vehicle methocel): 253 ± 156%; Peak, maximal % increase of ACh release over baseline ([2]; 0.5 mg/kg, vehicle methocel): 40 ± 21%; time of Peak after administration ([2]; 0.5 mg/kg, vehicle methocel): 40 min; Duration, minutes of release above statistical significance ([2]; 0.5 mg/kg, vehicle methocel, NSP = no significant points): NSP
4 | Fc1cc(CC2(Cc3ccncc3)c3ccccc3Oc3ccccc32)ccn1 [Example 65, 9-((2-Fluoro-4-pyridinyl)methyl)-9-(4-pyridinylmethyl)-9H-xanthene] |  |  |  |  | 820 nM |  |  |  |  | 147 ± 69% | 40 ± 11% | 20 min | 60 min | 
5 | Fc1cc(CC2(Cc3ccnc(F)c3)c3ccccc3Oc3ncccc32)ccn1 [Example 67, 9,9-Bis((2-fluoro-4-pyridinyl)methyl)-4-azaxanthene] |  |  |  |  | 640 nM | 666 ± 212% | 123 ± 62% | 200 min | > | 1423 ± 595% | 199 ± 80% | 160 min | > | 
6 | Fc1cc(CC2(Cc3ccnc(F)c3)c3ccccc3-c3ncccc32)ccn1 [Example 68, 5,5-Bis((2-fluoro-4-pyridinyl)methyl)-5H-indeno[1,2-b]pyridine] | 871 ± 272% | 121 ± 25% | 100 min | 120 min | 760 nM | 304 ± 88% | 74 ± 29% | 100 min | 120 min | 942 ± 324% | 201 ± 68% | 80 min | > 80 min | increase in ACh levels ([2]; 5 mg/kg oral, FIG. 1): 2 fold; time for which the increase in ACh levels was maintained ([2]; 5 mg/kg oral, FIG. 1): over 1 hour; AUC, Area % under the curve ([2]; 2 mg/kg, vehicle water): 240 ± 82%; Peak, maximal % increase of ACh release over baseline ([2]; 2 mg/kg, vehicle water): 47 ± 12%; time of Peak after administration ([2]; 2 mg/kg, vehicle water): 40 min
7 | Fc1cc(CC2(Cc3ccnc(F)c3)c3ccccc3-c3nccnc32)ccn1 [Example 80, 9,9-Bis((2-fluoro-4-pyridinyl)methyl)-9H-indeno-[1,2-b]pyrazine] |  |  |  |  | 2330 nM |  |  |  |  |  |  |  |  | 
8 | Nc1cccc2c1C(Cc1ccnc(F)c1)(Cc1ccnc(F)c1)c1ccccc1-2 [Example 96, 9,9-Bis((2-fluoro-4-pyridinyl)methyl)-9H-fluoren-1-amine] |  |  |  |  | 570 nM |  |  |  |  |  |  |  |  | 

From patent US5594001A, “Polycyclic systems, and derivatives thereof, as neurotransmitter release enhancers useful in the treatment of cognitive disorders” (The DuPont Merck Pharmaceutical Company, priority 1994, dated 1997)
